“And” between values parts separate entries of the source, which are not always exact repeats. Equal entries are not always repeated. “Also recorded” adds a separate entry of the source. Where two headings read alike, the source gives them in different places.
How the values were obtained:
[1] = tested on: RNA-FL complex; type: binding, SARS-CoV-2; details: for competition with RNA / nucleic acids binding to FL: DLS, in words
Experimental: To further address whether the ligands may modify the oligomeric status of the FL protein, we performed dynamic light scattering experiments. […] We then tested whether ligand binding to FL could be competitive with nucleic acids binding.
(§1) The experiments were performed on a Malvern nanosizer apparatus. The temperature was set at 20 °C, and 10 scans with a duration of 10 s each were acquired in duplicate for each time and sample. The size distribution in the intensity of the scattered light was obtained using the Cumulants method from the instrumental software, yielding the hydrodynamic diameter. The N NTD concentration was in the range of 40–60 μM, the FL concentration was in the range of 1 to 10 µM in 20 mM Tris buffer at pH = 7.9 containing 100 mM NaCl. The melting experiments were performed at a heating rate of 1 °C/min over the range 30 °C to 65 °C in sealed disposable cuvettes. The apparent melting temperature, Tm, was determined by the first derivative of the melting curve.

[2] = tested on: patients hospitalized for mild and moderate COVID-19; details: human, in vivo; cited from earlier work
[3] = tested on: FL; type: binding, SARS-CoV-2; details: for Size (nm) Intensity / Size (nm) Volume: pH 7.9
[4] = tested on: viral replication; details: cited from earlier work
[5] = tested on: model of reconstituted lung epithelium; details: cited from earlier work
[6] = tested on: SARS-CoV-2; details: cited from earlier work
[7] = target: T1, NTD wt (Severe acute respiratory syndrome coronavirus 2, UniProt P0DTC9); details: cited from earlier work
[8] = tested on: FL; type: binding
[9] = target: T1, NTD wt; type: binding
[10] = tested on: DNA-FL complex; assay: Dynamic light scattering, competition with DNA binding to FL; set-up: species or system SARS-CoV-2; details: for Size, Intensity: percentage in parentheses / Size, Volume: percentage in parentheses / Size (nm) Volume / Size (nm) Intensity: DNA + ligand, 4 µM, FL 4 µM; for Size (nm) Volume: without ligand 15.7 ± 1.2; for Size (nm) Intensity: without ligand 25.3 ± 3.1
Experimental: To further address whether the ligands may modify the oligomeric status of the FL protein, we performed dynamic light scattering experiments. FL (2 µM) presented a main peak at 12.0 ± 0.6 nm in volume (14 nm in intensity); the size of the complex decreased to 10.3 and 7.8 ± 0.3 nm upon addition of 2 µM and 6 µM enkephalin, respectively (Figure 6D). […] We then tested whether ligand binding to FL could be competitive with nucleic acids binding.
as §1

| Compound | competition with RNA / nucleic acids binding to FL [1] | Size, Intensity: percentage in parentheses [3] | Size, Volume: percentage in parentheses [3] | effect on size (oligomeric status) of FL [3] | Size (nm) Intensity [3] | Size (nm) Volume [3] | effect on viral replication ([4]; ref [17],[18],[34],[35]) | further results |
| --- | --- | --- | --- | --- | --- | --- | --- | --- |
| COc1ccc2c(c1)c(CC(=O)O)c(C)n2C(=O)c1ccc(Cl)cc1 [Indomethacin, indomethacin] | consistent with a competition | 11.0 ± 0.4 (30%) 6.7 ± 0.3 (60%) | 10.3 ± 0.5 (100%) 6.3 ± 0.4 (96%) | a larger decrease | 11.0 ± 0.4 (30%) 6.7 ± 0.3 (60%) nm | 10.3 ± 0.5 (100%) 6.3 ± 0.4 (96%) nm | decrease viral replication | patient recovery [2]: helped the patients to recover |
| COc1ccc2cc([C@H](C)C(=O)O)ccc2c1 [Naproxen, naproxen] |  | 12.2 ± 0.5 (40%) 8.7 ± 0.3 (60%) | 11.3 ± 0.4 (99%) 8.9 ± 0.3 (96%) | the same trend was observed | 12.2 ± 0.5 (40%) 8.7 ± 0.3 (60%) nm | 11.3 ± 0.4 (99%) 8.9 ± 0.3 (96%) nm |  | protection of lung cells against viral injury [5]: protected lung cells against viral injury; replication and inflammation in reconstituted lung epithelium [5]: inhibited replication and reduced inflammation; viral load of infected cells [6]: reduced the viral load of infected cells; binding to N-terminal domain in vitro [7]: bound to SARS-CoV-2 N-terminal domain (NTD) in vitro; effect on viral replication [4]: decrease viral replication |
| Dihydrofolate [DHF] | consistent with a competition |  |  |  |  |  | decrease viral replication | binding to FL by SPR, in words [8]: binding of DHF to the full-length protein was smaller; Kd ([9]; SPR, NTD, ligand range 0.3–10.0 µM, 20 mM HEPES, 100 mM NaCl, 0.05% Tween): ~1 µM and 1 µM; effect on viral replication ([4]; ref [35]): reduction of viral replication |
| Hemin |  |  |  |  |  |  | decrease viral replication | effect on viral replication ([4]; hemin binding to N, ref [32]): reduce viral replication |
| Leu-enkephalin | competitive with nucleic acids binding to FL; also recorded: consistent with a competition | 12.6 ± 0.6 (31%) 8.7 ± 0.2 (40%) | 11.3 ± 0.6 (96%) 8.0 ± 0.3 (100%) | decreased its size as compared to the size of N alone | 12.6 ± 0.6 (31%) 8.7 ± 0.2 (40%) nm | 11.3 ± 0.6 (96%) 8.0 ± 0.3 (100%) nm |  | effect on size of N-DNA complex, in words ([10]; DLS, Figure 6E): the size of the N-DNA complex was reduced; Size, Intensity: percentage in parentheses [10]: 89%; Size, Volume: percentage in parentheses [10]: 99%; Size (nm) Volume [10]: 9.0 ± 1.7 nm; Size (nm) Intensity [10]: 10.5 ± 1.2 nm |
| RPKPQQF-OH [Substance P (1-7), Substance P (1-7) RPKPQQF-OH] | competitive with nucleic acids binding to FL; also recorded: consistent with a competition | 10.3 ± 0.6 (50%) 8.0 ± 1.0 (76%) | 9.5 ± 0.6 (98%) 7.2 ± 1.1 (99%) | a larger decrease | 10.3 ± 0.6 (50%) 8.0 ± 1.0 (76%) nm | 9.5 ± 0.6 (98%) 7.2 ± 1.1 (99%) nm |  | binding to FL by SPR, in words [8]: bound the N FL protein as measured by SPR; also recorded: observed; Size, Intensity: percentage in parentheses ([1]; RNA + ligand, 4 µM, FL 4 µM): 75%; Size, Volume: percentage in parentheses ([1]; RNA + ligand, 4 µM, FL 4 µM): 97%; Size (nm) Volume ([1]; RNA + ligand, 4 µM, FL 4 µM, without ligand 15.1 ± 1.1): 11.3 ± 0.6 nm; Size (nm) Intensity ([1]; RNA + ligand, 4 µM, FL 4 µM, without ligand 21.5 ± 2.0): 16.1 ± 0.6 nm; binding to NTD by SPR, in words [9]: observed; Size, Intensity: percentage in parentheses [10]: 70%; Size, Volume: percentage in parentheses [10]: 91%; Size (nm) Volume [10]: 10.1 ± 0.6 nm; Size (nm) Intensity [10]: 13.8 ± 0.6 nm |
| tetrahydrofolate [THF] |  |  |  |  |  |  |  | effect on viral replication ([4]; ref [35]): reduction of viral replication |

From paper PMC9698730 (Molecules, 2022)
